Laboratory results as given in article PMC10179589, “Membrane Permeability Is Required for the Vasodilatory Effect of Carbonic Anhydrase Inhibitors in Porcine Retinal Arteries” (International Journal of Molecular Sciences, 2023).
pKi: −log10 of the molar value. Structures can show the parent of a compound that is named as a salt.

Assays:
[1] = molecular target: T1, hCA I (Homo sapiens, UniProt P00915); test: stopped-flow CA inhibition assay; type: biochemical
T1 construct: gene CA1; cytosolic isoform
T1 sequence (P00915 2-261): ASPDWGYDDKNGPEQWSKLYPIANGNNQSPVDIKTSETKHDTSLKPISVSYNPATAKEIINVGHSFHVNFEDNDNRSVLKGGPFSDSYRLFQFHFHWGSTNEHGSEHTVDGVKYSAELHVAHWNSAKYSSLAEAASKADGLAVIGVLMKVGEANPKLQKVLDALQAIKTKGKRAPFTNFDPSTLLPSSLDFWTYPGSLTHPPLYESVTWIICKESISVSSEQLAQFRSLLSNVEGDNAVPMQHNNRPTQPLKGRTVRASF
Source text: stopped-flow CA inhibition assay on hCA I

[2] = molecular target: T2, hCA II (Homo sapiens, UniProt P00918); test: stopped-flow CA inhibition assay; type: biochemical
T2 construct: gene CA2; cytosolic isoform
Source text: stopped-flow CA inhibition assay on hCA II

| Compound | pKi [1] | pKi [2] |
| --- | --- | --- |
| N=C(N)NC(=N)Nc1ccc(S(N)(=O)=O)cc1 [compound 2, 4-(3-Carbamimidoylguanidino)benzenesulfonamide hydrochloride salt] | 6.44 | 6.87 |
| N=C(N)NC(=N)Nc1cccc(S(N)(=O)=O)c1 [compound 4, 3-(3-Carbamimidoylguanidino)benzenesulfonamide hydrochloride salt] | 6.15 | 6.58 |
